These results are taken from patent publication US9060928B2, “Tacrolimus injection preparation” (FUZHOU HARVESTER PHARMACEUTICAL R&D CO., LTD., priority 2009, dated 2015).

For data set [1] the following is noted: cited from earlier work.
Data set [2] has as its system guinea pigs. In words: Hypersensitivity test in animals. Type of data set: in vivo. Here is the method: 18 healthy guinea pigs weighed 250-350 g were divided into 3 groups (a test group, a negative control group, and a positive control group) of 6 animals each at random. […] In 15 min after the injection, the hypersensitive responses of the injected guinea pigs were observed. A positive response was determined if two or more of piloerection, dyspnea, or 3 cough sounds, or one of twitch, collapse or death appeared.

On to `C=CC[C@@H]1/C=C(\C)C[C@H](C)C[C@H](OC)[C@H]2O[C@@](O)(C(=O)C(=O)N3CCCC[C@H]3C(=O)O[C@H](/C(C)=C/[C@@H]3CC[C@@H](O)[C@H](OC)C3)[C@H](C)[C@@H](O)CC1=O)[C@H](C)C[C@@H]2OC` (relative stereo) [tacrolimus, [3S—[3R*[E(1S*,3S*,4S*)],4S*,5R*,8S*,9E,12R*,14R*,15S*,16R*,18S*,19S*,26aR*]]-5,6,8,11,12,13,14,15,16,17,18,19,24,25,26a-hexa-decahydro-5,19-dihydroxy-3-[2-(4-hydroxy-3-methoxycyclohexyl)-1-methylethenyl]-14,16-dimethoxy-4,10,12,18-tetramethyl-8-(2-propenyl)-15,19-epoxy-3H-pyrido[2,1-c][1,4]oxazacyclotricosene-1,7,20,21(4H,23H)-tetrone, monohydrate], for which, in data set [1] (organic solvents (such as methanol, ethanol, or acetone)), the “Solubility in organic solvents” value is “freely soluble”. The Solubility in water result in data set [1] (water) is listed as “practically insoluble”.

B1: 10% ovalbumin solution: 10% ovalbumin solution, positive control of the hypersensitivity test (protein, UniProt P01012 2-386, looked up)
Ovalbumin: GSIGAASMEFCFDVFKELKVHHANENIFYCPIAIMSALAMVYLGAKDSTRTQINKVVRFDKLPGFGDSIEAQCGTSVNVHSSLRDILNQITKPNDVYSFSLASRLYAEERYPILPEYLQCVKELYRGGLEPINFQTAADQARELINSWVESQTNGIIRNVLQPSSVDSQTAMVLVNAIVFKGLWEKAFKDEDTQAMPFRVTEQESKPVQMMYQIGLFRVASMASEKMKILELPFASGTMSMLVLLPDEVSGLEQLESIINFEKLTEWTSSNVMEERKIKVYLPRMKMEEKYNLTSVLMAMGITDVFSSSANLSGISSAESLKISQAVHAAHAEINEAGREVVGSAEAGVDAASVSEEFRADHPFLFCIKHIATNAVLFFGRCVSP
With B1, in data set [2] (guinea pigs, n = 6, intraperitoneal sensitization, intravenous boost at days 14 and 21, animals responding/total), the “Occurrence of hypersensitive response” value is 6/6. In data set [2] (in 1 min after two times of intravenous administration, 6 guinea pigs), the “Hypersensitive response of positive control (in words)” value is “cough, respiratory depression, and twitch to death occur to all of the 6 guinea pigs”.
